In patent US20200017549A1, “NOVEL a4B7 PEPTIDE ANTAGONISTS” (Protagonist Therapeutics, Inc., priority 2013, published 2020):
Bridge positions count the residues as written; N and C are the ends. Square brackets hold non-standard residues; d marks the D form. Peptide text beside a SMILES is read from it. NMeR = CN[C@@H](CCCNC(=N)N)C(=O)O; Pen = CC(C)(S)[C@H](N)C(=O)O

Experiment: Simulated Intestinal Fluid (SIF) Stability Assay
Format: in vitro ADME
Details: for stability in simulated intestinal fluids (SIF): Cys substituted with Pen, compared to SEQ ID NO: 46 with Cys
Procedure: Simulated Intestinal Fluid (SIF) Stability Assay
Studies were carried out in simulated intestinal fluid (SIF) to evaluate gastric stability of the peptide molecules of the instant invention. SIF was prepared by adding 6.8 g of monobasic potassium phosphate and 10.0 g of pancreatin to 1.0 L of water. After dissolution, the pH was adjusted to 6.8 using NaOH. DMSO stocks (2 mM) were first prepared for the test compounds. Aliquots of the DMSO solutions were dosed into 6 individual tubes, each containing 0.5 mL of SIF, which had been pre-warmed to 37° C.
The final test compound concentration was 20 μM. The vials were kept in a benchtop Thermomixer® for the duration of the experiment. At each time point (0, 5, 10, 20, 40, and 60 minutes), 1.0 mL of acetonitrile containing 1% formic acid was added to one vial to terminate the reaction. Samples were stored at 4° C. until the end of the experiment. After the final timepoint was sampled, the tubes were mixed and then centrifuged at 3,000 rpm for 10 minutes. Aliquots of the supernatant were removed, diluted 1:1 into distilled water containing internal standard, and analyzed by LCMS/MS. Percent remaining at each time point was calculated based on the peak area response ratio of test to compound to internal standard. Time 0 was set to 100%, and all later time points were calculated relative to time 0. Half-lives were calculated by fitting to a first-order exponential decay equation using GraphPad. A small sampling of the results of these studies is provided and discussed in connection FIG. 3, above.

SMILES	half-life in SIF (simulated intestinal fluid, pH 6.8, 37° C., N-Me-Arg substituted versus non-methylated variation)	stability in simulated intestinal fluids (SIF)
CC(=O)N[C@H]1CSSC[C@@H](C(N)=O)NC(=O)[C@H](CC(C)C)NC(=O)[C@H]([C@@H](C)O)NC(=O)[C@H](CC(=O)O)NC(=O)[C@H](CO)NC(=O)[C@H](CCCNC(=N)N)N(C)C1=O [SEQ ID NO: 46] (Ac-C[NMeR]SDTLC-NH2; disulfide 1-7)	increased half-life substantially	
CC(=O)N[C@H]1CSSC(C)(C)[C@@H](C(=O)N[C@H](CCCCN)C(N)=O)NC(=O)[C@H](CC(C)C)NC(=O)[C@H]([C@@H](C)O)NC(=O)[C@H](CC(=O)O)NC(=O)[C@H](CO)NC(=O)[C@H](CCCNC(=N)N)N(C)C1=O [SEQ ID NO: 55] (Ac-C[NMeR]SDTL[Pen][dK]-NH2; disulfide 1-7)		increased stability significantly
CC(=O)N[C@H]1CSSC(C)(C)[C@@H](C(=O)N[C@@H](CCC(=O)O)C(=O)N[C@H](CCCCN)C(N)=O)NC(=O)[C@H](CC(C)C)NC(=O)[C@H]([C@@H](C)O)NC(=O)[C@H](CC(=O)O)NC(=O)[C@H](CO)NC(=O)[C@H](CCCNC(=N)N)N(C)C1=O [SEQ ID NO: 74] (Ac-C[NMeR]SDTL[Pen]E[dK]-NH2; disulfide 1-7)		increased stability significantly
CC(=O)N[C@@H]1C(=O)N(C)[C@@H](CCCNC(=N)N)C(=O)N[C@@H](CO)C(=O)N[C@@H](CC(=O)O)C(=O)N[C@@H]([C@@H](C)O)C(=O)N[C@@H](CC(C)C)C(=O)N[C@H](C(=O)N[C@H](CCCCN)C(N)=O)C(C)(C)SSC1(C)C [SEQ ID NO: 93] (Ac-[Pen][NMeR]SDTL[Pen][dK]-NH2; disulfide 1-7)		increased stability significantly
